Source: PMC10685196 (Heliyon, 2023)
Read-outs that look alike come from different tables or passages of the source.

Columns and labels:
Br2 β-glucosidase [1] = experiment: p-nitrophenol release, absorbance at […] nm, Michaelis-Menten fit; assay type: biochemical, uncultured bacterium; settings: read-out: pNP-Glc; 0.1 M sodium phosphate, pH 6.5, 40 °C, 10 min
Br2 β-glucosidase [2] = experiment: glucose release, glucose oxidase/ABTS assay, Michaelis-Menten fit; assay type: biochemical, uncultured bacterium; settings: 0.1 M sodium phosphate, pH 6.5, 40 °C, 10 min
[3] = target: Br2 β-glucosidase (glycoside hydrolase family 1), wild type (bovine rumen metagenome (microbe not identified)); experiment: SEC
Br2 β-glucosidase [4] = settings: read-out: pNP-Glc; 0.1 M sodium phosphate, pH 6.5, 40 °C, 10 min; cited from earlier work
Br2 β-glucosidase [5] = settings: read-out: pNP-Glc; 0.1 M sodium phosphate, pH 6.5, 40 °C, 10 min
Br2 β-glucosidase [6] = settings: 0.1 M sodium phosphate, pH 6.5, 40 °C, 10 min

Compound O=[N+]([O-])c1ccc(O[C@@H]2O[C@H](CO)[C@@H](O)[C@H](O)[C@H]2O)cc1 [pNP-Glc, p-nitrophenyl β-D-glucopyranoside] has a Km (Br2 β-glucosidase [1]) of 0.55 ± 0.04 mM.
For OC[C@H]1O[C@@H](O[C@H]2C(O)O[C@H](CO)[C@@H](O)[C@@H]2O)[C@H](O)[C@@H](O)[C@@H]1O (stereo partly shown) [Sophorose], the Km (Br2 β-glucosidase [2]; read-out: Sophorose) was 2.68 ± 0.16 mM.
Work on “Br2 β-glucosidase (glycoside hydrolase family 1), wild type (enzyme)” yielded a stoichiometry N [3] of 4.
For OC[C@H]1O[C@@H](O[C@H]2[C@H](O)[C@@H](O)C(O)O[C@@H]2CO)[C@H](O)[C@@H](O)[C@@H]1O (stereo partly shown) [Cellobiose], the Km (Br2 β-glucosidase [4]) is given as 24.3 ± 9.8 mM.
For OC[C@H]1O[C@@H](O[C@H]2[C@H](O)[C@@H](CO)OC(O)[C@@H]2O)[C@H](O)[C@@H](O)[C@@H]1O (stereo partly shown) [Laminaribiose], the Km (Br2 β-glucosidase [2]; read-out: pNP-Glc) was 1.29 ± 0.08 mM and the Km (Br2 β-glucosidase [5]) was 11.7 ± 4.2 mM.
With OC[C@H]1O[C@@H](O[C@H]2[C@H](O)[C@@H](O)[C@H](O[C@H]3[C@H](O)[C@@H](O)C(O)O[C@@H]3CO)O[C@@H]2CO)[C@H](O)[C@@H](O)[C@@H]1O (stereo partly shown) [Cellotriose] the Km (Br2 β-glucosidase [2]; read-out: Sophorose) was 6.73 ± 0.32 mM and the Km (Br2 β-glucosidase [6]; read-out: Sophorose) was 3.57 ± 0.33 mM.
For OC[C@H]1O[C@@H](O[C@H]2[C@H](O)[C@@H](O)[C@H](O[C@H]3[C@H](O)[C@@H](O)[C@H](O[C@H]4[C@H](O)[C@@H](O)C(O)O[C@@H]4CO)O[C@@H]3CO)O[C@@H]2CO)[C@H](O)[C@@H](O)[C@@H]1O (stereo partly shown) [Cellotetraose], the Km (Br2 β-glucosidase [2]; read-out: Gentiobiose) was 3.87 ± 0.16 mM and the Km (Br2 β-glucosidase [6]; read-out: Gentiobiose) was 1.83 ± 0.09 mM.
With OC[C@H]1O[C@@H](O[C@@H]2[C@@H](O)[C@H](O[C@H]3[C@H](O)[C@@H](CO)OC(O)[C@@H]3O)O[C@H](CO)[C@H]2O)[C@H](O)[C@@H](O)[C@@H]1O (stereo partly shown) [Laminaritriose] the Km (Br2 β-glucosidase [2]; read-out: Sophorose) was 0.9 ± 0.09 mM.
OC[C@H]1O[C@@H](O[C@@H]2[C@@H](O)[C@H](O[C@@H]3[C@@H](O)[C@H](O[C@H]4[C@H](O)[C@@H](CO)OC(O)[C@@H]4O)O[C@H](CO)[C@H]3O)O[C@H](CO)[C@H]2O)[C@H](O)[C@@H](O)[C@@H]1O (stereo partly shown) [Laminaritetraose] showed a Km (Br2 β-glucosidase [2]; read-out: Gentiobiose) of 2.56 ± 0.41 mM.
OC[C@H]1O[C@@H](OC[C@H]2OC(O)[C@H](O)[C@@H](O)[C@@H]2O)[C@H](O)[C@@H](O)[C@@H]1O (stereo partly shown) [Gentiobiose] gave a Km (Br2 β-glucosidase [2]; read-out: Gentiobiose) of 35.8 ± 10.9 mM.
